Reference: patent publication US7858635B2 (priority 2005, dated 2010)
Where two headings read alike, the source gives them in different places.

How the values were obtained:
M1 muscarinic receptor = biological target: T1, M1 muscarinic receptor (Homo sapiens, UniProt P11229); experiment: Functional mobilization of intracellular calcium (FLIPR, Fluo-3), M1-CHO cells; format: cell-based; details: for Emax: 100% efficacy is the maximum response obtained with the Carbachol control, read-out: M1 Efficacy
T1 construct: expressed in transfected cells; host or cells: CHO cells (M1-CHO, under zeocin and G418 selection)
T1 sequence (P11229 1-460): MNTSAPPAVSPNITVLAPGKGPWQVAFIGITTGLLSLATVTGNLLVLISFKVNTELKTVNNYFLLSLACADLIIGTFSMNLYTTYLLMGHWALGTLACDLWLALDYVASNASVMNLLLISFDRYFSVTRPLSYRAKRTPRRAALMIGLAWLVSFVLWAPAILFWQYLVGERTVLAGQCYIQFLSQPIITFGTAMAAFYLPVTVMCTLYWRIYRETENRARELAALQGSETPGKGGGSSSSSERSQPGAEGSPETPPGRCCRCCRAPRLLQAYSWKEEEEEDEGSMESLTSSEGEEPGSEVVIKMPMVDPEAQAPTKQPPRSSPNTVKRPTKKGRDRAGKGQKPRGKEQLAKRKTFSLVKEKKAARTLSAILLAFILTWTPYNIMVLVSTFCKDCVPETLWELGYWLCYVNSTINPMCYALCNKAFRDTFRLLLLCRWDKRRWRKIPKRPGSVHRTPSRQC
Method in brief: (§1)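 Intracellular calcium was tracked by fluorescence (488/540 nm) over 60 sec after compound addition to dye-loaded CHO cells expressing the receptor. Inhibitory activity used a 15 min pre-incubation before carbachol at the subtype EC80.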

M4 muscarinic receptor = biological target: T2, M4 muscarinic receptor (Homo sapiens, UniProt P08173); experiment: Functional mobilization of intracellular calcium (FLIPR, Fluo-3), M4-CHO cells; format: cell-based; details: for Emax: 100% efficacy is the maximum response obtained with the Carbachol control, read-out: M4 Efficacy
T2 construct: expressed in transfected cells; host or cells: CHO cells (M4-CHO, under puromycin, zeocin and blasticidin selection)
T2 sequence (P08173 1-479): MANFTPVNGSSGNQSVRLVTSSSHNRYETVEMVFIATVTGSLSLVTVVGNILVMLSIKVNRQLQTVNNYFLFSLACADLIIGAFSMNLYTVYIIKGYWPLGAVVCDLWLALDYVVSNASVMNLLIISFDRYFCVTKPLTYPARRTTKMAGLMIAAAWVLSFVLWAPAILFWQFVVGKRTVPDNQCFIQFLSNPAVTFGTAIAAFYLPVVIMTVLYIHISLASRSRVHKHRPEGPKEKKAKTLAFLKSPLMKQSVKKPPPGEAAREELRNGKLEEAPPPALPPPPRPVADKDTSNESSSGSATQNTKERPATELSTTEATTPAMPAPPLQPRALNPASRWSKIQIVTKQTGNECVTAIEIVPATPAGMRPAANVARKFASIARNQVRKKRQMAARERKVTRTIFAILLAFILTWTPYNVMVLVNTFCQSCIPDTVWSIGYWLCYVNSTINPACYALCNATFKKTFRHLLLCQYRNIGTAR
Method in brief: as §1

[1] = compound nos. 1-454, M1-CHO cells, calcium mobilization
[2] = compound nos. 1-454, M4-CHO cells, calcium mobilization

## CCOC(=O)N1C2CCC1CC(N1CCC3(CC1)CN(C(=O)C1CCC1)c1ccc(F)cc13)C2 (stereo not drawn) [compound 179]
M1 muscarinic receptor; compound nos. 1-454
  Emax: > 85%
M1 muscarinic receptor; [1]
  M1 Activity: ++ (activity was measured to be between 0.7 μM and 3.0 μM)
M4 muscarinic receptor; compound nos. 1-454
  Emax: 55 to 70%
M4 muscarinic receptor; [2]
  M4 Activity: + (activity was measured to be greater than or equal to 4.0 μM)

## Cc1ccc(N2CCC(N3CCC4(CC3)CN(C(=O)N(C)C)c3ccc(F)cc34)CC2)nn1 [compound 462]
M1 muscarinic receptor; compound nos. 455-509
  Emax: 25 to 100%
M1 muscarinic receptor; compounds 455-509
  M1 Activity: + (activity was measured to be greater than or equal to 5.0 μM)
M4 muscarinic receptor; compound nos. 455-509
  Emax: < 25%
M4 muscarinic receptor; compounds 455-509
  M4 Activity: ++ (activity was measured to be between 2.0 μM and 5.0 μM)

## CC#CCOC(=O)N1CC2(CCN(C3CCN(C(=O)OCC)CC3)CC2)c2cc(F)ccc21 [compound 346]
M1 muscarinic receptor; compound nos. 1-454
  Emax: < 65%
M1 muscarinic receptor; [1]
  M1 Activity: +++ (activity was measured to be less than or equal to 0.7 μM)
M4 muscarinic receptor; compound nos. 1-454
  Emax: < 55%
M4 muscarinic receptor; [2]
  M4 Activity: + (activity was measured to be greater than or equal to 4.0 μM)

## CC(=O)N1CC2(CCN(CC3CCCOC3)CC2)c2cc(F)ccc21 (stereo not drawn) [compound 75]
M1 muscarinic receptor; compound nos. 1-454
  Emax: < 65%
M1 muscarinic receptor; [1]
  M1 Activity: +++ (activity was measured to be less than or equal to 0.7 μM)
M4 muscarinic receptor; compound nos. 1-454
  Emax: 55 to 70%
M4 muscarinic receptor; [2]
  M4 Activity: ++ (activity was measured to be between 0.1 μM and 4.0 μM)

## CCOC(=O)N1CCC(CN2CCC3(CC2)CN(C(C)=O)c2c(F)cccc23)CC1 [compound 307]
M1 muscarinic receptor; compound nos. 1-454
  Emax: 65 to 85%
M1 muscarinic receptor; [1]
  M1 Activity: ++ (activity was measured to be between 0.7 μM and 3.0 μM)
M4 muscarinic receptor; compound nos. 1-454
  Emax: < 55%
M4 muscarinic receptor; [2]
  M4 Activity: + (activity was measured to be greater than or equal to 4.0 μM)

## CC(=O)N1CC2(CCN(C3CCC4(CC3)CC(C)=NO4)CC2)c2cc(F)ccc21 (stereo not drawn) [compound 433]
M1 muscarinic receptor; compound nos. 1-454
  M1 Activity: ++ (activity was measured to be between 0.7 μM and 3.0 μM)
  Emax: 65 to 85%
M4 muscarinic receptor; compound nos. 1-454
  M4 Activity: ++ (activity was measured to be between 0.1 μM and 4.0 μM)
  Emax: < 55%

## COCCOC(=O)N1C2CCC1CC(N1CCC3(CC1)CN(C(=O)OC)c1ccc(F)cc13)C2 (stereo not drawn) [compound 33]
M1 muscarinic receptor; compound nos. 1-454
  Emax: > 85%
M1 muscarinic receptor; [1]
  M1 Activity: +++ (activity was measured to be less than or equal to 0.7 μM)
M4 muscarinic receptor; compound nos. 1-454
  Emax: > 70%
M4 muscarinic receptor; [2]
  M4 Activity: +++ (activity was measured to be less than or equal to 0.1 μM)

## CCOC(=O)N1C2CCC1CC(N1CCC3(CC1)CN(C(C)=O)c1ccc(Cl)cc13)C2 (stereo not drawn) [compound 417]
M1 muscarinic receptor; compound nos. 1-454
  M1 Activity: ++ (activity was measured to be between 0.7 μM and 3.0 μM)
  Emax: < 65%
M4 muscarinic receptor; compound nos. 1-454
  M4 Activity: + (activity was measured to be greater than or equal to 4.0 μM)
  Emax: < 55%

## CCOC(=O)N1CCC(N2CCC3(CC2)CN(C(C)=O)c2ccc(-c4ccc(C(C)=O)cc4)cc23)CC1 [compound 221]
M1 muscarinic receptor; compound nos. 1-454
  Emax: 65 to 85%
M1 muscarinic receptor; [1]
  M1 Activity: ++ (activity was measured to be between 0.7 μM and 3.0 μM)
M4 muscarinic receptor; compound nos. 1-454
  Emax: < 55%
M4 muscarinic receptor; [2]
  M4 Activity: + (activity was measured to be greater than or equal to 4.0 μM)

## Cc1nsc(N2C3CCC2CC(N2CCC4(CC2)CN(C(=O)N(C)C)c2ccccc24)C3)n1 (stereo not drawn) [compound 493]
M1 muscarinic receptor; compound nos. 455-509
  Emax: > 100%
M1 muscarinic receptor; compounds 455-509
  M1 Activity: +++ (activity was measured to be less than or equal to 2.0 μM)
M4 muscarinic receptor; compound nos. 455-509
  Emax: 25 to 100%
M4 muscarinic receptor; compounds 455-509
  M4 Activity: ++ (activity was measured to be between 2.0 μM and 5.0 μM)

## CCOC(=O)N1C2CCC1CC(CN1CCC3(CC1)CNc1ccc(F)cc13)C2 (stereo not drawn) [compound 368]
M1 muscarinic receptor; compound nos. 1-454
  Emax: < 65%
M1 muscarinic receptor; [1]
  M1 Activity: +++ (activity was measured to be less than or equal to 0.7 μM)
M4 muscarinic receptor; compound nos. 1-454
  Emax: < 55%
M4 muscarinic receptor; [2]
  M4 Activity: ++ (activity was measured to be between 0.1 μM and 4.0 μM)

## CCCOC(=O)N1C2CCC1CC(N1CCC3(CC1)CN(C(=O)OC)c1ccc(F)cc13)C2 (stereo not drawn) [compound 386]
M1 muscarinic receptor; compound nos. 1-454
  M1 Activity: ++ (activity was measured to be between 0.7 μM and 3.0 μM)
  Emax: < 65%
M4 muscarinic receptor; compound nos. 1-454
  M4 Activity: ++ (activity was measured to be between 0.1 μM and 4.0 μM)
  Emax: < 55%

## Fc1ccc2c(c1)C1(CCN([C@H]3C[C@@H]4CC[C@@H]3C4)CC1)CO2 [compound 204]
M1 muscarinic receptor; compound nos. 1-454
  Emax: 65 to 85%
M1 muscarinic receptor; [1]
  M1 Activity: +++ (activity was measured to be less than or equal to 0.7 μM)
M4 muscarinic receptor; compound nos. 1-454
  Emax: < 55%
M4 muscarinic receptor; [2]
  M4 Activity: + (activity was measured to be greater than or equal to 4.0 μM)

## O=C(C1CC1)N1CC2(CCN(C3CC4CCC(C3)N4C(=O)OC3CCC3)CC2)c2cc(F)ccc21 (stereo not drawn) [compound 379]
M1 muscarinic receptor; compound nos. 1-454
  M1 Activity: +++ (activity was measured to be less than or equal to 0.7 μM)
  Emax: 65 to 85%
M4 muscarinic receptor; compound nos. 1-454
  M4 Activity: ++ (activity was measured to be between 0.1 μM and 4.0 μM)
  Emax: 55 to 70%

## c1ccc2c(c1)NCC21CCN(C2CCCCC2)CC1 [compound 375]
M1 muscarinic receptor; compound nos. 1-454
  M1 Activity: +++ (activity was measured to be less than or equal to 0.7 μM)
  Emax: > 85%
M4 muscarinic receptor; compound nos. 1-454
  M4 Activity: +++ (activity was measured to be less than or equal to 0.1 μM)
  Emax: 55 to 70%

## CC(=O)NC1CC2(CCN(C[C@H]3C[C@H]4C=C[C@H]3C4)CC2)c2ccccc21 (stereo partly drawn) [compound 213]
M1 muscarinic receptor; compound nos. 1-454
  Emax: 65 to 85%
M1 muscarinic receptor; [1]
  M1 Activity: ++ (activity was measured to be between 0.7 μM and 3.0 μM)
M4 muscarinic receptor; compound nos. 1-454
  Emax: < 55%
M4 muscarinic receptor; [2]
  M4 Activity: + (activity was measured to be greater than or equal to 4.0 μM)

## CC(=O)N1CC2(CCN(C3CCCN(C(=O)OC(C)C)CC3)CC2)c2cc(F)ccc21 (stereo not drawn) [compound 395]
M1 muscarinic receptor; compound nos. 1-454
  M1 Activity: +++ (activity was measured to be less than or equal to 0.7 μM)
  Emax: < 65%
M4 muscarinic receptor; compound nos. 1-454
  M4 Activity: + (activity was measured to be greater than or equal to 4.0 μM)
  Emax: < 55%

## CCOC(=O)N1C2CCC1CC(N1CCC3(CC1)C(=O)N(C)c1ccccc13)C2 (stereo not drawn) [compound 149]
M1 muscarinic receptor; compound nos. 1-454
  Emax: > 85%
M1 muscarinic receptor; [1]
  M1 Activity: +++ (activity was measured to be less than or equal to 0.7 μM)
M4 muscarinic receptor; compound nos. 1-454
  Emax: > 70%
M4 muscarinic receptor; [2]
  M4 Activity: + (activity was measured to be greater than or equal to 4.0 μM)

## CC(=O)N1CC2(CCN(C3CCCC3)CC2)c2cc(F)ccc21 [compound 343]
M1 muscarinic receptor; compound nos. 1-454
  Emax: 65 to 85%
M1 muscarinic receptor; [1]
  M1 Activity: +++ (activity was measured to be less than or equal to 0.7 μM)
M4 muscarinic receptor; compound nos. 1-454
  Emax: < 55%
M4 muscarinic receptor; [2]
  M4 Activity: +++ (activity was measured to be less than or equal to 0.1 μM)

## COCCOC(=O)N1C2CCC1CC(N1CCC3(CC1)CN(C(C)=O)c1ccc(F)cc13)C2 (stereo not drawn) [compound 76]
M1 muscarinic receptor; compound nos. 1-454
  Emax: 65 to 85%
M1 muscarinic receptor; [1]
  M1 Activity: +++ (activity was measured to be less than or equal to 0.7 μM)
M4 muscarinic receptor; compound nos. 1-454
  Emax: 55 to 70%
M4 muscarinic receptor; [2]
  M4 Activity: ++ (activity was measured to be between 0.1 μM and 4.0 μM)

## CC(=O)N1CC2(CCN(C3CCCN(C(=O)OCCF)CC3)CC2)c2cc(F)ccc21 (stereo not drawn) [compound 168]
M1 muscarinic receptor; [1]
  M1 Activity: ++ (activity was measured to be between 0.7 μM and 3.0 μM)
M4 muscarinic receptor; compound nos. 1-454
  Emax: > 70%
M4 muscarinic receptor; [2]
  M4 Activity: ++ (activity was measured to be between 0.1 μM and 4.0 μM)

## CCCc1cnc(N2CCC(N3CCC4(CC3)CN(C(=O)N(C)C)c3ccccc34)CC2)cn1 [compound 459]
M1 muscarinic receptor; compound nos. 455-509
  Emax: > 100%
M1 muscarinic receptor; compounds 455-509
  M1 Activity: ++ (activity was measured to be between 2.0 μM and 5.0 μM)
M4 muscarinic receptor; compound nos. 455-509
  Emax: 25 to 100%
M4 muscarinic receptor; compounds 455-509
  M4 Activity: ++ (activity was measured to be between 2.0 μM and 5.0 μM)
